The values that follow come from patent US8852590B2, “Compositions and methods for treating cancer” (Merck Sharp & Dohme Corp., priority 2009, dated 2014).

Assay [1] deals with A549 human NSCLC xenograft. The assay is described as follows: A549 mutant-KRAS lung xenograft model. In kind it is in vivo, athymic Nude-Foxn1nu mice. As for the experimental part: Method: 2.5×10^6 A549 human NSCLC cells were injected subcutaneously into the right flank of 4-6 week old athymic Nude-Foxn1nu mice (Charles River Laboratories). When tumors reached a size of ˜300 mm3 (Length*Width*Width*0.5), mice were randomized into treatment groups. […] Animals were weighed and tumor volumes were determined by calipering 2 times per week during the study and at termination. Tumor weight was determined at termination. On day 21 Animals were sacrificed by CO2 asphyxiation. Mice were sacrificed 24 hr after the final dose. At time of sacrifice, the tissue samples were collected and processed.

Assay [2] relates to PI3 Kinase signaling pathway in H2122 cells. The assay is described as follows: Western blot of PI3K pathway signaling in H2122 cells. In kind it is cell-based, human. The following applies: 4 hrs. The method, then:
Methods: All the NSCLC cell lines were obtained from ATCC and maintained in RPMI 1640 with 10% fetal bovine serum (Invitrogen). […] Samples were western blotted with indicated total or phosphospecific antibodies followed by a secondary antibody (Cell Signaling Technology, CST) and then incubated with SuperSignal chemiluminescence substrate (Pierce). The blots were then exposed to a Kodak Biomax Light Film. The antibodies against ERK, p-ERK (Thr202/Tyr204), AKT and p-AKT (Ser473), IGF S6K & P-S6K (T389), IRS1 & P-IRS1 (S302) and actin were obtained from CST. Cell cycle analysis was performed in H2122 cells following 24 hr treatment with indicated compounds (see above). One million cells were permiabilized and stained with propidium Iodide (PI) as described by the manufacturer (BD Pharmingen #550825). PI binds to both DNA and RNA, so the latter was removed by digestion with ribonucleases (RNase A). The content of DNA as determined by flow cytometry, can reveal useful information about the cell cycle. Cells in G2 and M phases of the cell cycle have double the DNA content of those in G0 and G1 phases. Cells in S phase have a DNA content lying between these extremes. PI is detected in the orange range of the spectrum using a 562-588 nm band pass filter using a flow cytometer. […] Both compounds act by inhibiting oncogenic signaling through the PI3 Kinase signaling pathway. […]

For assay [3], the system named is A549 cell line. The assay is described as follows: Soft agar colony formation assay, A549. In kind it is cell-based, human. The following applies: Ridaforolimus 10 nM, MK-0646 10 ug/ml, no supplemented IGF. The method, then: (§1) The colony formation assay was performed in the absence of supplemented IGF. […] No significant correlation of KRAS-status and response to the combination was observed.
(§2) Methods: Soft agar assays were conducted in 96 well glass bottom plates (MatriCal). Cells were seeded at a concentration of 3,000-9,000 cells per well in 100 μl RMPI 1640 supplemented with 14% FBS and 0.3% (w/v) SeaPlaque Agarose (Lonza Rockland, Inc) on top of a bottom layer of consisting of the same culture media supplemented with 0.8% agarose. Compounds were added in 100 μl of culture media supplemented after agarose had solidified. Cells were incubated for 7-14 days before staining overnight with LavaCell (Active Motif). Colonies were quantified using an Isocyte™ laser scanning cytometer. […] The RTK status was evaluated in total protein lysates using the P-RTK arrays (R&D biosciences) as described by the manufacturer. The activating mutations in KRAS were identified from published cancer genome data bases (Sanger).

The test system of assay [4] is H2122 cell line. The assay is described as follows: Soft agar colony formation assay, H2122. The following applies: Ridaforolimus 10 nM, MK-0646 10 ug/ml, no supplemented IGF. In kind it is cell-based, human. The method, then:
as §1, §2

The subject of assay [5] is H1703. In words: Soft agar colony formation assay, H1703. In kind it is cell-based, human. As to conditions: H1703, low expression of IGF1R. The method, then:
as §1, §2

For assay [6], the system named is noninfected Sf9 insect cells. The assay is described as follows: FACScan reactivity of MAb on noninfected Sf9 insect cells. In kind it is binding. The method, then:
For the immunization stage, mice were injected twice, by the subcutaneous route, with 8 μg of recombinant IGF-IR. Three days before the fusion of the cells of the […] with the cells of the murine myeloma Sp2OAg14, the mice were stimulated by an intravenous injection of 3 μg of the recombinant receptor. Fourteen days after the fusion, the supernatants of hybridomas were screened by ELISA, on plates sensitized by recombinant IGF-IR. The hybridomas whose supernatants were found positive were conserved and amplified before being tested on the FACS can so as to verify that the antibodies produced were likewise capable of recognizing native IGF-IR. In order to do this, MCF-7 cells from an estrogen-dependent tumor of the breast overexpressing IGF-IR were incubated with each of the culture supernatants produced by the hybridomas selected in ELISA. […] At this stage of the selection, only the hybridomas secreting MAb at the same time recognizing the recombinant receptor and the native receptor were selected and cloned. The MAb secreted by these hybridomas were produced and then purified before being tested on the FACScan, according to the method described above, on […] expressing IGF-IR or IR in order to eliminate the hybridomas at the same time recognizing the two receptors.

Assay [7] relates to MCF-7 cells. In words: IGF-I induced proliferation of MCF-7 cells (tritiated thymidine incorporation). In kind it is cell-based. The following applies: antibody 10 μg/ml; IGF-I 1 to 50 ng/ml. From the text: The cell proliferation is estimated by following on the […] the incorporation of tritiated thymidine by the cells. The results are expressed as a proliferative index.
A general note: Dividing cells build labelled thymidine or BrdU into new DNA.

Assay [8] relates to MCF-7 tumor. In words: Established MCF-7 tumor model in nude mice. In kind it is in vivo. As to conditions: 250 μg/dose/mouse twice per week, 5 to 6 weeks. The method, then:
The in vivo selection was carried out in an established tumor model. In order to do this, nude mice received a subcutaneous implant of slow-release estrogen, indispensable for the taking of the tumor in a murine model. Twenty-four hours after implantation of the estrogens, 5.10^6 MCF-7 cells are grafted onto the right flank of the mouse subcutaneously. Five days after this cell graft, the tumors are measurable and batches of 6 mice are formed at random. The treatment of the mice is carried out twice per week, during 5 to 6 weeks, at the dose of 250 μg/dose/mouse. In the control group, the mice are treated in the same fashion with a murine control isotype.

The test system of assay [9] is AKT-P. The following applies: treatment of patients, O'Reilly et al 2006; cited from earlier work.

Entries after “also recorded” stand apart in the source; their conditions may differ.

As for `C#Cc1cccc(Nc2ncnc3cc(OCCOC)c(OCCOC)cc23)c1` [Erlotinib], the tumor growth inhibition entry in assay [1] (Erlotinib treated group compared to vehicle) is given as “No significant growth inhibition; also recorded: did not result in any appreciable tumor growth inhibition”.
Turning to “MK-0646: humanized antibody binding IGF-1R as well as the IR/IGF-1 hybrid receptor”, the AKT phosphorylation result in [2] (MK-0646 10 ng/ml) was “preventing”. In addition, the “soft agar growth inhibition” value in assay [3] and in [4] was “only limited single agent activity” each time. Also, the “soft agar single agent sensitivity” value in [5] was “resistant”.
As for “7C10: murine monoclonal antibody secreted by hybridoma deposited at CNCM, IgG1, directed against IGF-IR [Example 7C10]”, the “MFI (Mean fluorescence intensity)” value in assay [6] came to 8.6. In assay [7], the “inhibition of proliferation of MCF-7 cells induced by IGF-I” value is “significantly inhibits”. Also, the “inhibition of tumor growth” value in [8] is listed as “very significant inhibition”.
For `CO[C@H]1C[C@@H]2CC[C@@H](C)[C@@](O)(O2)C(=O)C(=O)N2CCCC[C@H]2C(=O)O[C@H]([C@H](C)C[C@@H]2CC[C@@H](OCCO)[C@H](OC)C2)CC(=O)[C@H](C)/C=C(\C)[C@@H](O)[C@@H](OC)C(=O)[C@H](C)C[C@H](C)/C=C/C=C/C=C/1C` [RAD001], the “AKT-P level in patients” value in [9] is reported as “elevated AKT-P”.
For `CO[C@H]1C[C@@H]2CC[C@@H](C)[C@@](O)(O2)C(=O)C(=O)N2CCCC[C@H]2C(=O)O[C@H]([C@H](C)C[C@@H]2CC[C@@H](OP(C)(C)=O)[C@H](OC)C2)CC(=O)[C@H](C)/C=C(\C)[C@@H](O)[C@@H](OC)C(=O)[C@H](C)C[C@H](C)/C=C/C=C/C=C/1C` [Ridaforolimus, Dimethyl-Phosphinic Acid C-43 Rapamycin Ester], the “phosphorylation of S6K” value in [2] (Ridaforolimus 10 nM) is “preventing”. Further, the “soft agar growth inhibition” value in assay [3] and in assay [4] was “only limited single agent activity” each time. Moreover, the Relative tumor growth in assay [1] (Rida 0.1mpk, 3 weeks, end of treatment) was found to be 35.01%.
